Data from patent publication US8952024B2, “Herbicidal pyrimidone derivatives” (E I du Pont de Nemours and Company, priority 2009, dated 2015).

How the values were obtained:
Experiment in all cases: Test B pre-/postemergence plant response
Assay type in all cases: in vivo
kochia (Kochia scoparia) = settings: for Kochia plant response rating (0 to 100 scale): 62 g ai/ha, 0 is no effect, 13 to 15 days
Summary of the method: (§1)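 Visual ratings on a 0–100 scale (100 = complete control) were made versus untreated controls 13–15 days after treatment in a greenhouse. Compounds in surfactant-containing non-phytotoxic solvent were applied preemergence to seeds in loam–sand blend or postemergence to 1- to 4-leaf plants (2–18 cm).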

[1] = system: woolly cupgrass (Eriochloa villosa); settings: for Cupgrass, Woolly plant response rating (0 to 100 scale): 62 g ai/ha, 0 is no effect, 13 to 15 days
Summary of the method: as §1

wild oat (Avena fatua) = settings: for Oat, Wild plant response rating (0 to 100 scale): 62 g ai/ha, 0 is no effect, 13 to 15 days
Summary of the method: as §1

[2] = system: large crabgrass (Digitaria sanguinalis); settings: for Crabgrass, Large plant response rating (0 to 100 scale): 62 g ai/ha, 0 is no effect, 13 to 15 days
Summary of the method: as §1

[3] = system: yellow nutsedge (Cyperus esculentus); settings: for Nutsedge, Yellow plant response rating (0 to 100 scale): 62 g ai/ha, 0 is no effect, 13 to 15 days
Summary of the method: as §1

[4] = system: Surinam grass (Brachiaria decumbens); settings: for Surinam Grass plant response rating (0 to 100 scale): 62 g ai/ha, 0 is no effect, 13 to 15 days
Summary of the method: as §1

[5] = system: lambsquarters (Chenopodium album); settings: for Lambsquarters plant response rating (0 to 100 scale): 62 g ai/ha, 0 is no effect, 13 to 15 days
Summary of the method: as §1

[6] = system: cocklebur (Xanthium strumarium); settings: for Cocklebur plant response rating (0 to 100 scale): 62 g ai/ha, 0 is no effect, 13 to 15 days
Summary of the method: as §1

[7] = 31 g ai/ha, postemergence, scale 0 to 100, 0 is no effect, 100 is complete control
[8] = postemergence, 100 is complete control
[9] = Postemergence, 250 g ai/ha, scale 0 to 100 (0 no effect, 100 complete control)
[10] = Postemergence, 125 g ai/ha, visual rating after 13 to 15 days, scale 0 (no effect) to 100 (complete control)
[11] = Postemergence, 125 g ai/ha, scale 0 to 100 (0 no effect, 100 complete control)

SMILES	Plant response rating, Kochia (kochia (Kochia scoparia); [7])	Kochia plant response rating (0 to 100 scale) (kochia (Kochia scoparia); [8])	Plant response rating, Kochia (kochia (Kochia scoparia); [9])	Plant response rating, Cupgrass, Woolly [1, 7]	Cupgrass, Woolly plant response rating (0 to 100 scale) [1, 8]	Plant response rating, Cupgrass, Woolly [1, 9]	Plant response rating, Oat, Wild (wild oat (Avena fatua); [7])	Oat, Wild plant response rating (0 to 100 scale) (wild oat (Avena fatua); [8])	Plant response rating, Oat, Wild (wild oat (Avena fatua); [9])	Plant response rating, Crabgrass, Large [2, 7]	Crabgrass, Large plant response rating (0 to 100 scale) [2, 8]	Plant response rating, Crabgrass, Large [2, 9]	Plant response rating, Nutsedge, Yellow [3, 7]	Nutsedge, Yellow plant response rating (0 to 100 scale) [3, 8]	Plant response rating, Nutsedge, Yellow [3, 9]	Surinam Grass plant response rating (0 to 100 scale) [4, 8]	Plant response rating, Surinam Grass [4, 9]	Plant response rating, Lambsquarters [5, 7]	Lambsquarters plant response rating (0 to 100 scale) [5, 8]	Cocklebur plant response rating (0 to 100 scale) [6, 8]	also measured
CCOCCn1c(-c2ccccc2)ncc(C(=O)C2=C(O)CCCC2=O)c1=O [Compound 96]	65	85	100	70	75	85	0	5	30	75	80	90	70	70	85	75	85	90	98	95	Plant response rating, Cupgrass, Woolly [1, 10]: 85; Plant response rating, Crabgrass, Large [2, 10]: 85; Plant response rating, Surinam Grass [4, 7]: 75; Plant response rating, Lambsquarters [5, 9]: 100; Plant response rating, Cocklebur [6, 7]: 75; Plant response rating, Cocklebur [6, 10]: 98; Plant response rating, Cocklebur [6, 9]: 100
COCCn1c(-c2ccsc2)ncc(C(=O)C2=C(O)CCCC2=O)c1=O [Compound 97, 5-[(2-hydroxy-6-oxo-1-cyclohexen-1-yl)carbonyl]-3-(2-methoxyethyl)-2-(3-thienyl)-4(3H)-pyrimidinone]	–	90	–	–	60	–	–	5	–	–	80	–	–	75	–	75	–	–	100	100	pest or weed control at 31 g/ha (kochia (Kochia scoparia); Bassia scoparia, post-emergence, 31 g ai/ha, postemergence, scale 0 to 100, 0 is no effect, 100 is complete control, read-out: Plant response rating, Kochia): 65%; pest or weed control at 250 g/ha (kochia (Kochia scoparia); Bassia scoparia, post-emergence, Postemergence, 250 g ai/ha, scale 0 to 100 (0 no effect, 100 complete control), read-out: Plant response rating, Kochia): 100%; pest or weed control at 31 g/ha ([1]; Eriochloa villosa, post-emergence, 31 g ai/ha, postemergence, scale 0 to 100, 0 is no effect, 100 is complete control, read-out: Plant response rating, Cupgrass, Woolly): 55%; pest or weed control at 125 g/ha ([1]; Eriochloa villosa, post-emergence, Postemergence, 125 g ai/ha, visual rating after 13 to 15 days, scale 0 (no effect) to 100 (complete control)): 70%; pest or weed control at 250 g/ha ([1]; Eriochloa villosa, post-emergence, Postemergence, 250 g ai/ha, scale 0 to 100 (0 no effect, 100 complete control), read-out: Plant response rating, Cupgrass, Woolly): 75%; pest or weed control at 31 g/ha (wild oat (Avena fatua); Avena fatua, post-emergence, 31 g ai/ha, postemergence, scale 0 to 100, 0 is no effect, 100 is complete control, read-out: Plant response rating, Oat, Wild): 0%; pest or weed control at 250 g/ha (wild oat (Avena fatua); Avena fatua, post-emergence, Postemergence, 250 g ai/ha, scale 0 to 100 (0 no effect, 100 complete control), read-out: Plant response rating, Oat, Wild): 10%; pest or weed control at 31 g/ha ([2]; Digitaria sanguinalis, post-emergence, 31 g ai/ha, postemergence, scale 0 to 100, 0 is no effect, 100 is complete control, read-out: Plant response rating, Crabgrass, Large): 75%; pest or weed control at 125 g/ha ([2]; Digitaria sanguinalis, post-emergence, Postemergence, 125 g ai/ha, visual rating after 13 to 15 days, scale 0 (no effect) to 100 (complete control)): 85%; pest or weed control at 250 g/ha ([2]; Digitaria sanguinalis, post-emergence, Postemergence, 250 g ai/ha, scale 0 to 100 (0 no effect, 100 complete control), read-out: Plant response rating, Crabgrass, Large): 95%; pest or weed control at 31 g/ha ([3]; Cyperus, post-emergence, 31 g ai/ha, postemergence, scale 0 to 100, 0 is no effect, 100 is complete control, read-out: Plant response rating, Nutsedge, Yellow): 75%; pest or weed control at 250 g/ha ([3]; Cyperus, post-emergence, Postemergence, 250 g ai/ha, scale 0 to 100 (0 no effect, 100 complete control), read-out: Plant response rating, Nutsedge, Yellow): 80%; pest or weed control at 31 g/ha ([4]; Urochloa decumbens, post-emergence, 31 g ai/ha, postemergence, scale 0 to 100, 0 is no effect, 100 is complete control, read-out: Plant response rating, Surinam Grass): 65%; pest or weed control at 250 g/ha ([4]; Urochloa decumbens, post-emergence, Postemergence, 250 g ai/ha, scale 0 to 100 (0 no effect, 100 complete control), read-out: Plant response rating, Surinam Grass): 85%; pest or weed control at 31 g/ha ([5]; Chenopodium album, post-emergence, 31 g ai/ha, postemergence, scale 0 to 100, 0 is no effect, 100 is complete control, read-out: Plant response rating, Lambsquarters): 90%; pest or weed control at 250 g/ha ([5]; Chenopodium album, post-emergence, Postemergence, 250 g ai/ha, scale 0 to 100 (0 no effect, 100 complete control), read-out: Plant response rating, Lambsquarters): 100%; pest or weed control at 31 g/ha ([6]; Xanthium strumarium, post-emergence, 31 g ai/ha, postemergence, scale 0 to 100, 0 is no effect, 100 is complete control, read-out: Plant response rating, Cocklebur): 95%; pest or weed control at 125 g/ha ([6]; Xanthium strumarium, post-emergence, Postemergence, 125 g ai/ha, visual rating after 13 to 15 days, scale 0 (no effect) to 100 (complete control)): 100%; pest or weed control at 250 g/ha ([6]; Xanthium strumarium, post-emergence, Postemergence, 250 g ai/ha, scale 0 to 100 (0 no effect, 100 complete control), read-out: Plant response rating, Cocklebur): 100%
O=C1CCCC(O)=C1C(=O)c1cnc(-c2ccsc2)n(CC2CCCO2)c1=O (centres unmarked) [Compound 98]	65	70	98	65	70	95	10	20	50	75	75	95	50	60	75	75	90	95	98	100	Plant response rating, Kochia (kochia (Kochia scoparia); [11]): 80; Plant response rating, Cupgrass, Woolly [1, 11]: 75; Plant response rating, Oat, Wild (wild oat (Avena fatua); [11]): 20; Plant response rating, Crabgrass, Large [2, 11]: 80; Plant response rating, Nutsedge, Yellow [3, 11]: 70; Plant response rating, Surinam Grass [4, 11]: 85; Plant response rating, Lambsquarters [5, 11]: 100; Plant response rating, Lambsquarters [5, 9]: 100; Plant response rating, Cocklebur [6, 7]: 98; Plant response rating, Cocklebur [6, 11]: 100; Plant response rating, Cocklebur [6, 9]: 100
O=C1CCCC(O)=C1C(=O)c1cnc(-c2ccsc2)n(C2CCCCC2)c1=O [Compound 99]	80	80	100	70	75	85	10	20	80	85	85	95	45	70	75	70	80	98	100	100	Plant response rating, Kochia (kochia (Kochia scoparia); [11]): 100; Plant response rating, Cupgrass, Woolly [1, 11]: 80; Plant response rating, Oat, Wild (wild oat (Avena fatua); [11]): 40; Plant response rating, Crabgrass, Large [2, 11]: 95; Plant response rating, Nutsedge, Yellow [3, 11]: 70; Plant response rating, Surinam Grass [4, 11]: 75; Plant response rating, Lambsquarters [5, 11]: 100; Plant response rating, Lambsquarters [5, 9]: 100; Plant response rating, Cocklebur [6, 7]: 95; Plant response rating, Cocklebur [6, 11]: 100; Plant response rating, Cocklebur [6, 9]: 100
